Results published in patent US11160886B2, “Method for labeling of sensitive and thermosensitive targeting biomolecules with technetium based compounds” (BRACCO IMAGING SPA, priority 2016, dated 2021).

How the values were obtained:
[1] = Sera and homogenates stability; assay type: in vitro ADME, human and rat; settings: human and rat sera, 37° C., 3 h
Protocol: Sera and Homogenates Stability.
The in vitro stability of complex 1, complex 2, complex 9 and complex 11 was evaluated by monitoring the RCP at different time points using the following procedures. In a propylene test tube 50 μl of purified [^99mTc(N)(PNP3OH)]-compound were added to: a) 450 μl of human serum, b) 450 μl of rat serum, c) 450 μl of homogenate of rat liver and d) 450 μl of homogenate of rat kidneys. The resulting mixture was incubated at 37° C. for 4 h.
The sample was loaded onto a cartridge, preconditioned with MeOH (1 ml) and equilibrated with water (1 ml), and rinsed with MeOH 5% (3 ml). The activity was eluted with a mixture of EtOH/saline 60% (1 ml). Each fraction was collected and the activity measured using a counter (Cobra II, Packard) to determinate the elution profile. 80% of the loaded activity was collected in the elution fraction. An aliquot of this solution (100 μl) was analyzed by HPLC to assess the degradation of the ^99mTc(N)-complexes (FIG. 11).

[2] = Challenge reactions (transchelation) with excess Cys, GSH or EDTA, RCP by HPLC; assay type: physicochemical; settings: Cys 10 mM; for % RCP after incubation with excess Cys: 37° C.
Protocol: The transchelation studies were performed for some compounds monitoring by HPLC the radiochemical purity (RCP) of the complexes in presence of an excess of exchanging ligands over the time. The experiments were performed in triplicate.
Challenge experiments were carried out on the purified [^99mTc(N)(PNP3OH)]-labeled small size compounds (complex 1, complex 2, complex 9 and complex 10) using an excess of glutathione (GSH) or Cys. An aliquot (50 μl) of an aqueous stock solution of cysteine hydrochloride (10 mM; 1 mM) was added to a propylene test tube containing PB (250 μl, 0.2 M; pH 7.4), water (100 μl) and the selected [^99mTc(N)(PNP3OH)]-compound (100 μl). The mixture was vortexed and incubated at 37° C. for 24 h. A control reaction containing an equal volume of water, instead of cysteine hydrochloride, was studied in parallel. At 30 min, 1, 3 and 24 h, aliquots of the reaction mixture were withdrawn and analyzed by HPLC chromatography. A similar procedure was applied using GSH (50 μl, 10 mM) as challenge ligand.
For [^99mTc(N)(PNP3OH)(Cys-Gly-Lys-Gly-ApoMb)]^+ (“Cys-Gly-Lys-Gly” disclosed as SEQ ID NO: 1) additional experiments were conducted using EDTA (50 μl, 10 mM) as exchanging ligand.

[3] = Stability in the reaction solution as function of pH (FIG. 5); assay type: physicochemical
Protocol: The variation of (%)RCY of complex 1 and complex 2 over the time (30 min vs 18 h), at different conditions, is shown in FIG. 5. […] Alternatively, free PNP3OH was directly used.

[4] = Biodistribution in healthy rats; assay type: in vivo, Sprague-Dawley rats; settings: for Biodistribution: Blood / Biodistribution: Brain / Biodistribution: Heart / Biodistribution: Intestine / Biodistribution: Kidneys / Biodistribution: Liver / Biodistribution: Lungs / Biodistribution: Muscle / Biodistribution: Spleen / Biodistribution: Stomach / Biodistribution: Urine: healthy rats
Protocol: Before injection, ^99mTc complexes were purified using a reversed-phase C18 Sep-Pack cartridge to remove the excess of unlabeled ligands. After purification, the activity recovered was further diluted with PBS to obtain a final solution that is <0.5% in EtOH content. The RCP and the stability of the purified complexes were evaluated prior to in vivo administration and for the succeeding 18 h.
Biodistribution in healthy rats. Biodistribution in healthy rats was performed on complex 1, complex 2 and complex 9 in order to evaluate their pharmacokinetic profile and elimination pathways as well as their resistance to in vivo metabolism. Female Sprague-Dawley rats weighing 180-200 g were anesthetized with an intramuscular injection of a mixture of Zoletil (40 mg/kg) and xylazine (2 mg/kg). A jugular vein was surgically exposed and 100 μl (300-370 kBq) of the solution containing the selected [^99mTc(N)(PNP3OH)]-compound was injected. The rats (n=3) were scarified by cervical dislocation at different times after injection. The blood was withdrawn from the heart with a syringe immediately after death and quantified. Organs were excised, rinsed in saline, weighed, and the activity was counted in a Nal well counter.

CCOC(=O)C(N)C[S][99Tc+]#[N].COCCN(CCP(CO)CO)CCP(CO)CO [Complex 2, [^99mTc(N)(PNP3OH)(CysOEt)]^+]
Sera stability [1]: high sera stability
% RCP after incubation with excess Cys ([2]; 3 h): 65.93%
% RCP after incubation with excess Cys ([2]; 24 h): 23.32%
Stability toward Cys transchelation relative to neutral complexes ([2]; versus complex 1 and complex 11): higher stability toward Cys transchelation
Stability in the reaction solution ([3]; pH 7.4): stable within 18 h
Stability in the reaction solution ([3]; pH 9): a progressive degradation was observed
Pharmacokinetic profile: blood clearance ([4]; healthy animals, within the first 60 min p.i.): rapid blood clearance
Biodistribution: Blood ([4]; 2 min): 0.99 ± 0.18 % IA/g
Biodistribution: Brain ([4]; 2 min): 0.05 ± 0.00 % IA/g
Biodistribution: Heart ([4]; 2 min): 0.41 ± 0.07 % IA/g
Biodistribution: Intestine ([4]; 2 min): 0.39 ± 0.09 % IA/g
Biodistribution: Kidneys ([4]; 2 min): 5.38 ± 0.22 % IA/g
Biodistribution: Liver ([4]; 2 min): 0.99 ± 0.28 % IA/g
Biodistribution: Lungs ([4]; 2 min): 0.87 ± 0.17 % IA/g
Biodistribution: Muscle ([4]; 2 min): 0.19 ± 0.07 % IA/g
Biodistribution: Spleen ([4]; 2 min): 0.23 ± 0.01 % IA/g
Biodistribution: Stomach ([4]; 2 min): 0.49 ± 0.05 % IA/g
Biodistribution: Urine ([4]; 2 min): 16.32 ± 0.00 % IA/g
Biodistribution: Blood ([4]; 10 min): 0.62 ± 0.11 % IA/g
Biodistribution: Brain ([4]; 10 min): 0.07 ± 0.01 % IA/g
Biodistribution: Heart ([4]; 10 min): 0.26 ± 0.01 % IA/g
Biodistribution: Intestine ([4]; 10 min): 1.35 ± 0.19 % IA/g
Biodistribution: Kidneys ([4]; 10 min): 6.20 ± 0.51 % IA/g
Biodistribution: Liver ([4]; 10 min): 1.56 ± 0.06 % IA/g
Biodistribution: Lungs ([4]; 10 min): 0.50 ± 0.04 % IA/g
Biodistribution: Muscle ([4]; 10 min): 0.17 ± 0.04 % IA/g
Biodistribution: Spleen ([4]; 10 min): 0.17 ± 0.00 % IA/g
Biodistribution: Stomach ([4]; 10 min): 0.44 ± 0.08 % IA/g
Biodistribution: Urine ([4]; 10 min): 25.65 ± 16.29 % IA/g
Biodistribution: Blood ([4]; 30 min): 0.62 ± 0.06 % IA/g
Biodistribution: Brain ([4]; 30 min): 0.05 ± 0.03 % IA/g
Biodistribution: Heart ([4]; 30 min): 0.23 ± 0.02 % IA/g
Biodistribution: Intestine ([4]; 30 min): 1.26 ± 0.42 % IA/g
Biodistribution: Kidneys ([4]; 30 min): 6.43 ± 2.44 % IA/g
Biodistribution: Liver ([4]; 30 min): 1.85 ± 0.13 % IA/g
Biodistribution: Lungs ([4]; 30 min): 0.43 ± 0.00 % IA/g
Biodistribution: Muscle ([4]; 30 min): 0.21 ± 0.01 % IA/g
Biodistribution: Spleen ([4]; 30 min): 0.15 ± 0.00 % IA/g
Biodistribution: Stomach ([4]; 30 min): 0.32 ± 0.02 % IA/g
Biodistribution: Urine ([4]; 30 min): 17.06 ± 0.00 % IA/g
Biodistribution: Blood ([4]; 60 min): 0.24 ± 0.06 % IA/g
Biodistribution: Brain ([4]; 60 min): 0.02 ± 0.01 % IA/g
Biodistribution: Heart ([4]; 60 min): 0.09 ± 0.03 % IA/g
Biodistribution: Intestine ([4]; 60 min): 2.92 ± 0.26 % IA/g
Biodistribution: Kidneys ([4]; 60 min): 2.63 ± 1.43 % IA/g
Biodistribution: Liver ([4]; 60 min): 1.83 ± 0.05 % IA/g
Biodistribution: Lungs ([4]; 60 min): 0.19 ± 0.05 % IA/g
Biodistribution: Muscle ([4]; 60 min): 0.07 ± 0.04 % IA/g
Biodistribution: Spleen ([4]; 60 min): 0.11 ± 0.05 % IA/g
Biodistribution: Stomach ([4]; 60 min): 0.20 ± 0.12 % IA/g
Biodistribution: Urine ([4]; 60 min): 40.14 ± 0.00 % IA/g
Biodistribution: Blood ([4]; 120 min): 0.09 ± 0.09 % IA/g
Biodistribution: Brain ([4]; 120 min): 0.01 ± 0.01 % IA/g
Biodistribution: Heart ([4]; 120 min): 0.06 ± 0.06 % IA/g
Biodistribution: Intestine ([4]; 120 min): 6.23 ± 0.35 % IA/g
Biodistribution: Kidneys ([4]; 120 min): 1.67 ± 1.04 % IA/g
Biodistribution: Liver ([4]; 120 min): 0.29 ± 0.77 % IA/g
Biodistribution: Lungs ([4]; 120 min): 0.15 ± 0.14 % IA/g
Biodistribution: Muscle ([4]; 120 min): 0.04 ± 0.04 % IA/g
Biodistribution: Spleen ([4]; 120 min): 0.07 ± 0.04 % IA/g
Biodistribution: Stomach ([4]; 120 min): 0.31 ± 0.16 % IA/g
Biodistribution: Urine ([4]; 120 min): 20.10 ± 6.28 % IA/g
